A short description of data set [1]: Compound cytotoxicity, XTT-based colorimetric assay. The format is cell-based. Conditions: human; uninfected MT2 cells, day 4, XTT; read-out: CC50. The method, boiled down:
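Uninfected MT2 cells, antiviral-assay protocol without virus; XTT colorimetric readout day 4; CC50 reported.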

Data set [2] relates to recombinant NL4-3 virus (nef section replaced with Renilla luciferase gene) in MT-2 cells. In words: HIV cell culture assay (antiviral activity, luciferase readout). Particulars: Renilla, NL43, MT-2 cells infected for 4-5 days with recombinant NL4-3 Renilla luciferase virus. The data set is classed as cell-based. The gist of the method:
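Antiviral EC50 derived from luciferase signal using the exponential median effect equation. Infection of MT-2 cells ran 4-5 days alongside serial dilutions of compound, with virus generated by proviral clone transfection of 293T cells.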

Take `Cc1cc(C2(F)CCC(F)(F)CC2)nc2nc([C@H](Cc3cc(F)cc(F)c3)NC(=O)Cn3nc(C(F)(F)F)c4c3C(F)(F)[C@@H]3C[C@H]43)n(-c3ccc(Cl)c4c(NS(C)(=O)=O)nn(CCN5C[C@@H](C)O[C@@H](C)C5)c34)c(=O)c12` (atropisomer, axis not shown; (P)) [Example 594, N-[(1S)-1-[(3P)-3-(4-chloro-1-{2-[(2R,6S)-2,6-dimethylmorpholin-4-yl]ethyl}-3-methanesulfonamido-1H-indazol-7-yl)-5-methyl-4-oxo-7-(1,4,4-trifluorocyclohexyl)-3H,4H-pyrido[2,3-d]pyrimidin-2-yl]-2-(3,5-difluorophenyl)ethyl]-2-[(2S,4R)-5,5-difluoro-9-(trifluoromethyl)-7,8-diazatricyclo[4.3.0.0^2,^4]nona-1(6),8-dien-7-yl]acetamide]: the 50% cytotoxic concentration (CC50) at 4 days in data set [1] was above 20 nM. Further, the EC50 in data set [2] turned out to be 0.011 nM.

In the case of `Cc1cc(C2(F)CCC(F)(F)CC2)nc2nc([C@H](Cc3cc(F)cc(F)c3)NC(=O)Cn3nc(C4CC4)c4c3C(F)(F)[C@@H]3C[C@H]43)n(-c3ccc(Cl)c4c(NS(C)(=O)=O)nn(CCN5C[C@@H](C)O[C@@H](C)C5)c34)c(=O)c12` (atropisomer, axis not shown; (P)) [Example 595, N-[(1S)-1-[(3P)-3-(4-chloro-1-{2-[(2R,6S)-2,6-dimethylmorpholin-4-yl]ethyl}-3-methanesulfonamido-1H-indazol-7-yl)-5-methyl-4-oxo-7-(1,4,4-trifluorocyclohexyl)-3H,4H-pyrido[2,3-d]pyrimidin-2-yl]-2-(3,5-difluorophenyl)ethyl]-2-[(2S,4R)-9-cyclopropyl-5,5-difluoro-7,8-diazatricyclo[4.3.0.0^2,^4]nona-1(6),8-dien-7-yl]acetamide], the CC50 at 4 days in data set [1] was above 20 nM. Besides, the EC50 in data set [2] was 0.014 nM.

In the case of `Cc1cc(C2(F)CCC(F)(F)CC2)nc2nc([C@H](Cc3cc(F)cc(F)c3)NC(=O)Cn3nc(C(F)F)c4c3C[C@@H]3C[C@H]43)n(-c3ccc(Cl)c4c(NS(C)(=O)=O)nn(CCN5C[C@@H](C)O[C@@H](C)C5)c34)c(=O)c12` (atropisomer, axis not shown; (P)) [Example 596, N-[(1S)-1-[(3P)-3-(4-chloro-1-{2-[(2R,6S)-2,6-dimethylmorpholin-4-yl]ethyl}-3-methanesulfonamido-1H-indazol-7-yl)-5-methyl-4-oxo-7-(1,4,4-trifluorocyclohexyl)-3H,4H-pyrido[2,3-d]pyrimidin-2-yl]-2-(3,5-difluorophenyl)ethyl]-2-[(2S,4S)-9-(difluoromethyl)-7,8-diazatricyclo[4.3.0.0^2,^4]nona-1(6),8-dien-7-yl]acetamide], in data set [1], the CC50 at 4 days is above 20 nM. The EC50 in data set [2] was 0.029 nM.

Take `Cc1cc(C2(F)CCC(F)(F)CC2)nc2nc([C@H](Cc3cc(F)cc(F)c3)NC(=O)Cn3nc(C(F)(F)F)c4c3C[C@@H]3C[C@H]43)n(-c3ccc(Cl)c4c(NS(C)(=O)=O)nn(CCN5C[C@@H](C)O[C@@H](C)C5)c34)c(=O)c12` (atropisomer, axis not shown; (P)) [Example 597, N-[(1S)-1-[(3P)-3-(4-chloro-1-{2-[(2R,6S)-2,6-dimethylmorpholin-4-yl]ethyl}-3-methanesulfonamido-1H-indazol-7-yl)-5-methyl-4-oxo-7-(1,4,4-trifluorocyclohexyl)-3H,4H-pyrido[2,3-d]pyrimidin-2-yl]-2-(3,5-difluorophenyl)ethyl]-2-[(2S,4S)-9-(trifluoromethyl)-7,8-diazatricyclo[4.3.0.0^2,^4]nona-1(6),8-dien-7-yl]acetamide]: the CC50 at 4 days in data set [1] was above 20 nM. In addition, the EC50 in data set [2] amounted to 0.021 nM.

Take `Cc1cc(C2(F)CCC(F)(F)CC2)nc2nc([C@H](Cc3cc(F)cc(F)c3)NC(=O)Cn3nc([C@H]4CC4(F)F)c4c3C[C@H]3C[C@@H]43)n(-c3ccc(Cl)c4c(NS(C)(=O)=O)nn(CCN5C[C@@H](C)O[C@@H](C)C5)c34)c(=O)c12` (atropisomer, axis not shown; (P)) [Example 598, N-[(1S)-1-[(3P)-3-(4-chloro-1-{2-[(2R,6S)-2,6-dimethylmorpholin-4-yl]ethyl}-3-methanesulfonamido-1H-indazol-7-yl)-5-methyl-4-oxo-7-(1,4,4-trifluorocyclohexyl)-3H,4H-pyrido[2,3-d]pyrimidin-2-yl]-2-(3,5-difluorophenyl)ethyl]-2-[(2R,4R)-9-[(1R)-2,2-difluorocyclopropyl]-7,8-diazatricyclo[4.3.0.0^2,^4]nona-1(6),8-dien-7-yl]acetamide]: the CC50 at 4 days in data set [1] was above 20 nM. Besides, the EC50 in data set [2] came to 0.009 nM.

For `COCCCn1nc(NS(C)(=O)=O)c2c(Cl)ccc(-n3c([C@H](Cc4cc(F)cc(F)c4)NC(=O)Cn4nc(C5CC5)c5c4C[C@@H]4C[C@H]54)nc4nc(C5CCC(F)(F)CC5)cc(CN5C[C@@H](C)O[C@@H](C)C5)c4c3=O)c21` (atropisomer, axis not shown; (P)) [Example 599, N-[(1S)-1-[(3P)-3-[4-chloro-3-methanesulfonamido-1-(3-methoxypropyl)-1H-indazol-7-yl]-7-(4,4-difluorocyclohexyl)-5-{[(2R,6S)-2,6-dimethylmorpholin-4-yl]methyl}-4-oxo-3H,4H-pyrido[2,3-d]pyrimidin-2-yl]-2-(3,5-difluorophenyl)ethyl]-2-[(2S,4S)-9-cyclopropyl-7,8-diazatricyclo[4.3.0.0^2,^4]nona-1(6),8-dien-7-yl]acetamide], the CC50 at 4 days in data set [1] was above 20 nM. The EC50 in data set [2] stood at 0.007 nM.

As for `COCCCn1nc(NS(C)(=O)=O)c2c(Cl)ccc(-n3c([C@H](Cc4cc(F)cc(F)c4)NC(=O)Cn4nc(C(F)F)c5c4C(F)(F)[C@@H]4C[C@H]54)nc4nc(C5(F)CCC(F)(F)CC5)cc(CN5C[C@@H](C)O[C@@H](C)C5)c4c3=O)c21` (atropisomer, axis not shown; (P)) [Example 600, N-[(1S)-1-[(3P)-3-[4-chloro-3-methanesulfonamido-1-(3-methoxypropyl)-1H-indazol-7-yl]-5-{[(2R,6S)-2,6-dimethylmorpholin-4-yl]methyl}-4-oxo-7-(1,4,4-trifluorocyclohexyl)-3H,4H-pyrido[2,3-d]pyrimidin-2-yl]-2-(3,5-difluorophenyl)ethyl]-2-[(2S,4R)-9-(difluoromethyl)-5,5-difluoro-7,8-diazatricyclo[4.3.0.0^2,^4]nona-1(6),8-dien-7-yl]acetamide], the CC50 at 4 days in data set [1] was above 20 nM. Besides, the EC50 in data set [2] is 0.008 nM.

Regarding `CCNc1cc(C2CCC(F)(F)CC2)nc2nc([C@H](Cc3cc(F)cc(F)c3)NC(=O)Cn3nc(C4CC4)c4c3C[C@@H]3C[C@H]43)n(-c3ccc(Cl)c4c(NS(C)(=O)=O)nn(CCCOC)c34)c(=O)c12` (atropisomer, axis not shown; (P)) [Example 601, N-[(1S)-1-[(3P)-3-[4-chloro-3-methanesulfonamido-1-(3-methoxypropyl)-1H-indazol-7-yl]-7-(4,4-difluorocyclohexyl)-5-(ethylamino)-4-oxo-3H,4H-pyrido[2,3-d]pyrimidin-2-yl]-2-(3,5-difluorophenyl)ethyl]-2-[(2S,4S)-9-cyclopropyl-7,8-diazatricyclo[4.3.0.0^2,^4]nona-1(6),8-dien-7-yl]acetamide], the CC50 at 4 days in data set [1] was above 20 nM. Further, the EC50 in data set [2] is 0.008 nM.

As for `COCCCn1nc(NS(C)(=O)=O)c2c(Cl)ccc(-n3c([C@H](Cc4cc(F)cc(F)c4)NC(=O)Cn4nc(C5CC5)c5c4C[C@@H]4C[C@H]54)nc4nc(C5(F)CCC(F)(F)CC5)cc(CN5C[C@@H](C)O[C@@H](C)C5)c4c3=O)c21` (atropisomer, axis not shown; (P)) [Example 602, N-[(1S)-1-[(3P)-3-[4-chloro-3-methanesulfonamido-1-(3-methoxypropyl)-1H-indazol-7-yl]-5-{[(2R,6S)-2,6-dimethylmorpholin-4-yl]methyl}-4-oxo-7-(1,4,4-trifluorocyclohexyl)-3H,4H-pyrido[2,3-d]pyrimidin-2-yl]-2-(3,5-difluorophenyl)ethyl]-2-[(2S,4S)-9-cyclopropyl-7,8-diazatricyclo[4.3.0.0^2,^4]nona-1(6),8-dien-7-yl]acetamide], in data set [1], the CC50 at 4 days is above 20 nM. For the same molecule, the EC50 in data set [2] worked out at 0.017 nM.

For the molecule `COCCCn1nc(NS(C)(=O)=O)c2c(Cl)ccc(-n3c([C@H](Cc4cc(F)cc(F)c4)NC(=O)Cn4nc(C5CC5)c5c4C[C@@H]4C[C@H]54)nc4nc(C5CCC(F)(F)CC5)cc(CN5CC(F)(F)C5)c4c3=O)c21` (atropisomer, axis not shown; (P)) [Example 603, N-[(1S)-1-[(3P)-3-[4-chloro-3-methanesulfonamido-1-(3-methoxypropyl)-1H-indazol-7-yl]-5-[(3,3-difluoroazetidin-1-yl)methyl]-7-(4,4-difluorocyclohexyl)-4-oxo-3H,4H-pyrido[2,3-d]pyrimidin-2-yl]-2-(3,5-difluorophenyl)ethyl]-2-[(2S,4S)-9-cyclopropyl-7,8-diazatricyclo[4.3.0.0^2,^4]nona-1(6),8-dien-7-yl]acetamide], the CC50 at 4 days in data set [1] was above 20 nM. For the same molecule, in data set [2], the EC50 came to 0.004 nM.

For `COCCCn1nc(NS(C)(=O)=O)c2c(Cl)ccc(-n3c([C@H](Cc4cc(F)cc(F)c4)NC(=O)Cn4nc(C(F)F)c5c4C(F)(F)[C@@H]4C[C@H]54)nc4nc(C5CCC(F)(F)CC5)cc(CN5CC(OC)C5)c4c3=O)c21` (atropisomer, axis not shown; (P)) [Example 604, N-[(1S)-1-[(3P)-3-[4-chloro-3-methanesulfonamido-1-(3-methoxypropyl)-1H-indazol-7-yl]-7-(4,4-difluorocyclohexyl)-5-[(3-methoxyazetidin-1-yl)methyl]-4-oxo-3H,4H-pyrido[2,3-d]pyrimidin-2-yl]-2-(3,5-difluorophenyl)ethyl]-2-[(2S,4R)-9-(difluoromethyl)-5,5-difluoro-7,8-diazatricyclo[4.3.0.0^2,^4]nona-1(6),8-dien-7-yl]acetamide], the CC50 at 4 days in data set [1] is above 20 nM. Besides, in data set [2], the EC50 was 0.011 nM.

Source of the values: patent publication US12594276B2, “Inhibitors of human immunodeficiency virus replication” (ViiV Healthcare UK (No.5) Limited, priority 2024, dated 2026).
